Test results: US10064800B2, “Transglutaminase activator” (Kao Corporation, priority 2012, dated 2018)
Like-named read-outs stand apart in the source and are kept apart here.

How the values were obtained:
transglutaminase = test: Measurement of transglutaminase activity in lysate of treated keratinocytes (Transglutaminase Colorimetric Microassay Kit); format: cell-based, human; settings: for Transglutaminase activity: HEKn cells, 3 days, relative value, n = 3
[1] = system: Normal human epidermal keratinocytes NHEK(F); test: Verification of ceramide production enhancing effect (TLC of cell lipids); format: cell-based; settings: 3 days, 0.1 μM, relative value, 50 vol % ethanol = 1
Experimental: Normal human epidermal keratinocytes (trade name: NHEK(F), manufactured by Kurabo Industries, Ltd.) were cultured under the conditions of 37° C. and 5% CO2, in a culture medium (trade name: EpiLife-KG2, manufactured by Kurabo Industries, Ltd.) using a culture plate.
Thereafter, the culture medium was exchanged with EpiLife-KG2 without growth factors such as epidermal growth factor, and a dilution prepared from the extract from Justicia procumbens prepared in the Preparation Example 1-2, the concentration of which was adjusted to 1 w/v % in terms of solids content, […] Alternatively, the culture medium was exchanged with EpiLife-KG2 without growth factors such as epidermal growth factor, and a dilution prepared from the extract from Peristrophe japonica prepared in the Preparation Example 2-2, the concentration of which was adjusted to 1 w/v % in terms of solids content, was added to the culture fluid in an amount of 0.1%. […]
Further, 0.1 N NaOH and a 1% aqueous SDS solution were added to the cells from which lipids had been extracted, and the mixture was heated at 60° C. for 2 hours to thereby solubilize proteins. […] The amount of proteins was quantified by the BCA method. […]
A ceramide amount was measured using recovered cells in a manner similar to Test Example 2-1. […]

IVL gene = test: Evaluation of IVL gene expression (Real-time RT-PCR, HaCaT); format: cell-based, human; settings: 24 hours, 0.01 μM, corrected by RPLPO, relative value, DMSO = 1
Experimental: Human epidermal keratinocyte line HaCaT was cultured in a culture medium in which 10% fetal calf serum inactivated, and 1% penicillin-streptomycin (manufactured by Gibco Laboratories) were added to DMEM (manufactured by Gibco Laboratories), under conditions of 37° C. and 5% CO2.
In a 6-well plate, HaCaT cells were seeded in an amount of 5×10^4 pieces/well, and cultured. On the following day, exchange was carried out for a culture medium containing the exemplified compound (18) at a final concentration shown in Table 10, and culture was further carried out for 24 hours. In place of the exemplified compound (18), as a control, exchange was carried out for a culture medium containing at a final concentration of 0.1% v/v DMSO being a solvent, and culture was further carried out for 24 hours, and thus the resultant cultured product was used. After 24 hours from addition of the exemplified compound (18), the cells were washed twice using PBS(−), and total RNA was extracted using RNeasy (registered trademark) Mini Kit (manufactured by QIAGEN). A concentration of total RNA was measured, and a fixed amount of total RNA was used as a template, and a reverse transcription reaction was carried out using High capacity RNA-to-cDNA Kit (trade name, manufactured by Applied Biosystems, Inc.).
IVL gene expression was quantitatively determined from the resultant cDNA by Real-time RT-PCR. […]

[2] = evaluated conc. 1 μM, control DMSO = 1
[3] = evaluated conc. 0.01 μM, control DMSO = 1
[4] = evaluated conc. 0.1 μM, control DMSO = 1
[5] = fractions from Justicia procumbens extract, result in words

In the case of `COc1cc([C@@H]2c3cc4c(c(OC)c3C[C@H]3COC(=O)[C@@H]32)OCO4)cc(OC)c1OC` [(1), reference compound], the Transglutaminase activity (transglutaminase; [2]) was 0.24 ± 0.21.
`COc1cc([C@@H]2c3cc4c(cc3C[C@H]3COC(=O)[C@@H]32)OCO4)cc(OC)c1OC` [(2), reference compound] showed a Transglutaminase activity (transglutaminase; [2]) of 0.20 ± 0.18.
Work on `COc1c2c(c(-c3ccc4c(c3)OCO4)c3cc4c(cc13)OCO4)C(=O)OC2` [(3), reference compound] yielded a Transglutaminase activity (transglutaminase; [3]) of 0.75 ± 0.49, a Transglutaminase activity (transglutaminase; [4]) of 0.97 ± 0.43 and a Transglutaminase activity (transglutaminase; [2]) of 0.70 ± 0.24.
Compound `COc1cc2c(OC)c3c(c(-c4cc5c(cc4O)OCO5)c2cc1OC)C(=O)OC3` [(4), reference compound] has a Transglutaminase activity (transglutaminase; [3]) of 0.60 ± 0.28, a Transglutaminase activity (transglutaminase; [4]) of 0.39 ± 0.10 and a Transglutaminase activity (transglutaminase; [2]) of 0.22 ± 0.08.
With `O=C1OCc2cc3ccccc3c(-c3ccccc3)c21` [Exemplified compound (11), 9-phenylnaphtho[2,3-c]furan-1(3H)-one] the Transglutaminase activity (transglutaminase; [3]) was 1.10 ± 0.22, the Transglutaminase activity (transglutaminase; [4]) was 1.29 ± 0.40 and the Transglutaminase activity (transglutaminase; [2]) was 1.48 ± 0.22.
For `COc1cc2cc3c(c(-c4ccc5c(c4)OCO5)c2cc1OC)C(=O)OC3` [Exemplified compound (12), 6,7-dimethoxy-9-(1,3-benzodioxol-5-yl)naphtho[2,3-c]furan-1(3H)-one], the Transglutaminase activity (transglutaminase; [3]) was 1.20 ± 0.16, the Transglutaminase activity (transglutaminase; [4]) was 2.80 ± 1.73 and the “Transglutaminase activity of isolated HPLC fraction” value (transglutaminase; [5]) was “confirmed to exist”. The “Ceramide amount (Average value in n = 2)” value [1] was 1.30.
For `COc1cc2c(O)c3c(c(-c4ccc5c(c4)OCO5)c2cc1OC)C(=O)OC3` [Exemplified compound (13), 4-hydroxy-6,7-dimethoxy-9-(1,3-benzodioxol-5-yl)naphtho[2,3-c]furan-1(3H)-one], the Transglutaminase activity (transglutaminase; [3]) was 1.95 ± 0.53 and the Transglutaminase activity (transglutaminase; [4]) was 1.75 ± 0.61.
`COc1cc2c(OC)c3c(c(-c4ccc5c(c4)OCO5)c2cc1OC)C(=O)OC3` [Exemplified compound (14), 4,6,7-trimethoxy-9-(1,3-benzodioxol-5-yl)naphtho[2,3-c]furan-1(3H)-one] was tested, and the Transglutaminase activity (transglutaminase; [3]) was 1.22 ± 0.51, the Transglutaminase activity (transglutaminase; [4]) was 2.42 ± 0.55 and the Transglutaminase activity (transglutaminase; [2]) was 2.19 ± 0.98. The “Transglutaminase activity of isolated HPLC fraction” value (transglutaminase; [5]) was “confirmed to exist”.
For `CCOc1c2c(c(-c3ccc4c(c3)OCO4)c3cc(OC)c(OC)cc13)C(=O)OC2` [Exemplified compound (15), 4-ethoxy-6,7-dimethoxy-9-(1,3-benzodioxol-5-yl)naphtho[2,3-c]furan-1(3H)-one], the Transglutaminase activity (transglutaminase; [3]) was 1.25 ± 0.22, the Transglutaminase activity (transglutaminase; [4]) was 1.33 ± 0.39 and the Transglutaminase activity (transglutaminase; [2]) was 1.66 ± 0.33.
`COc1cc2c(OC(C)=O)c3c(c(-c4ccc5c(c4)OCO5)c2cc1OC)C(=O)OC3` [Exemplified compound (16), 4-acetoxy-6,7-dimethoxy-9-(1,3-benzodioxol-5-yl)naphtho[2,3-c]furan-1(3H)-one] gave a Transglutaminase activity (transglutaminase; [4]) of 1.46 ± 0.54 and a Transglutaminase activity (transglutaminase; [2]) of 2.10 ± 0.86.
`O=C1OCc2cc3ccc4c(c3cc21)OCO4` [Exemplified compound (19), furo[3′,4′,6,7]naphtho[1,2-d]-1,3-dioxole-9(7H)-one] gave a Transglutaminase activity (transglutaminase; [4]) of 1.98 ± 0.83 and a Transglutaminase activity (transglutaminase; [2]) of 2.37 ± 0.26.
`[Ca+2].[Cl-].[Cl-]` [Positive control (Ca^2+), CaCl2, reference compound] was tested, and the Transglutaminase activity (transglutaminase; CaCl2 1.5 mM positive control, control = 1) was 1.51 ± 0.20.
In the case of “Tuberculatin-5″-acetate [Exemplified compound (18)]”, the “Transglutaminase activity of isolated HPLC fraction” value (transglutaminase) was “confirmed to exist”, the Transglutaminase activity (transglutaminase; [4]) was 2.78 ± 0.19 and the Transglutaminase activity (transglutaminase; [2]) was 5.44 ± 0.19. The “IVL gene amount (Average value in n = 2)” value (IVL gene) was 1.32.
